In patent US20260000781A1, “FC CONJUGATES INCLUDING AN INHIBITOR OF CD73 AND USES THEREOF” (Cidara Therapeutics, Inc., priority 2022, published 2026):
Where “and” joins values, the source holds several entries; their conditions need not be identical. Identical values can stand only once. Like-named read-outs stand apart in the source and are kept apart here.

Tests used:
CD73 on human PBMCs = biological target: T1, CD73 on human PBMCs (Homo sapiens, UniProt P21589); assay: CD73 enzyme inhibition assay with human PBMCs (PiColorLock); type: cell-based; settings: AMP 100 μM
T1 construct: 72400 (T cells); host or cells: human PBMCs / human T cells
T1 sequence (P21589 27-549): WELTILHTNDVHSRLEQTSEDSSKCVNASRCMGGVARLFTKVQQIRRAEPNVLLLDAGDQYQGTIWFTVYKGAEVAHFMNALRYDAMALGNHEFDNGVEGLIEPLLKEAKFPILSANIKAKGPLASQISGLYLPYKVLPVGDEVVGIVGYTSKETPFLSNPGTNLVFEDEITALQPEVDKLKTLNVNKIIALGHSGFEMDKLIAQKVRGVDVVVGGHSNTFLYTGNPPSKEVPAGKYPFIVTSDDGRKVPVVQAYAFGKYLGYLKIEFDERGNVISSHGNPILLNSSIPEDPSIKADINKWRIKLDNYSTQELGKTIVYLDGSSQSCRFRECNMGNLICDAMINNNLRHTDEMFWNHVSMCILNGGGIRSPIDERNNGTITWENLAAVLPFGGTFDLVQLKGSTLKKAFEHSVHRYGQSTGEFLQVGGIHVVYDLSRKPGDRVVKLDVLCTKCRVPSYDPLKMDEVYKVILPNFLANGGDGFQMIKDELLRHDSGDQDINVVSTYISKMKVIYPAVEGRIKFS
Experimental: The cell-based CD73 enzyme inhibition assay was performed in a 96-well plate format using the PiColorLock phosphate assay kit in accordance with the manufacturer's instructions (Abcam cat no. 270004). 4T1 mouse cells are a model for stage IV human breast cancer (ATCC CRL-2539) and human peripheral blood mononuclear cells (PBMCs; StemCell Technologies cat no. 70025) from three different donors were assayed. 4T1 cells were washed three times with a phosphate-free CD73 buffer (Lawson et al., 2020), detached from tissue-culture flasks using a cell scraper, and seeded at 5×10^3 cells/well into 96-well tissue culture-treated plates. Human PBMCs were washed three times with phosphate-free CD73 buffer at 125×g for 10 min at room temperature and seeded at 1×10^5 cells/well into 96-well tissue culture-treated plates. Test articles were tested from 0.001 nM to 1,000 nM (4T1 cells) or 0.0001 nM to 100 nM (PBMCs) and incubated with cells for 30 min at 37° C., 5% CO2. AMP (100 μM final concentration) was added to cells and test articles, and the reaction incubated for 3 h and 24 h at 37° C., 5% CO2. The conversion of AMP to adenosine and phosphate in cell-free supernatant was quantified using the PiColorLock kit. Colorimetric detection reagent was added and the phosphate production was measured by reading the absorbance at 635 nm with the EnSpire multimode plate reader (PerkinElmer). Cells without test article (positive control) were included on each plate. Control wells without test article and cells (background) were subtracted from all wells. Percent CD73 inhibition versus inhibitor concentration was plotted using GraphPad Prism Version 8 and IC50's calculated using nonlinear regression analysis (Sigmoidal, 4 PL).
The cell-based CD73 enzyme inhibition assay was performed in a 96-well plate format using the Phosphate Assay Kit—PiColorLock™ in accordance with the manufacturer's instructions (cat no. 270004, Abcam). AMP is enzymatically converted by CD73 to adenosine and phosphate. Therefore, adenosine concentrations can be inferred from phosphate concentrations in 1:1 ratio. Both EMT6 mouse mammary carcinoma cells (ATCC CRL-2755) and human peripheral blood mononuclear cells (PBMC; Stemcell Technologies cat no. 70025, lot no. 2202401007) were assayed. The EMT6 cells were washed three times with a phosphate free CD73 buffer, detached from flasks using a cell scraper, and seeded at 3×10^3 cells/well in 100 μL into 96-well tissue culture-treated plates. Human PBMC cells were washed three times by suspending in phosphate free CD73 buffer and pelleting in a centrifuge at 125×g for 10 min at room temperature and seeded at 5×10^5 cells/well in 100 μL into 96-well tissue culture-treated plates. […] AMP was added at 100 μM and cells, test articles, and AMP were incubated together for 3 h and 24 h at 37° C., 5% CO2. The CD73 activity in the supernatant was quantified using the PiColorLock Phosphate assay kit. Colorimetric detection reagent was added and the free phosphate from the CD73 reaction was measured by reading the absorbance at 635 nm using the EnSpire multimode plate reader (PerkinElmer). Wells without test inhibitor (CD73 positive control) were included on each plate. Wells without test inhibitor and cells (background) were subtracted from all wells. The percent CD73 inhibition versus inhibitor concentration was plotted using GraphPad Prism Version 8 and IC50's calculated using nonlinear regression analysis (Sigmoidal, 4 PL).

CD73 on MDA-MB-231 cells = biological target: T2, CD73 on MDA-MB-231 cells (Homo sapiens, UniProt P21589); assay: CD73 internalization assay (Fab-ZAP); type: cell-based
T2 construct: host or cells: MDA-MB-231
T2 sequence (P21589 27-549): T1 sequence (P21589 27-549)
Experimental: Cells were plated into white tissue culture-treated 96 well plates (Corning cat no. 3917) at 5×10^3 to 1×10^4 cells/well in 100 μL in RPMI (Gibco cat no. 11875093)+10% FBS (Gibco cat no. 16140071) and incubated overnight at 37° C. with 5% CO2. Serial dilutions of test article (TA) from 0.00002 nM-200 nM (2× final concentration) were pre-incubated with 100 nM Fab-ZAP reagent (2× final concentration) for 30 min at room temperature. Cells were washed once with 150 μL/well 1×PBS (Gibco cat no. 10010023), followed by the addition of 50 μL/well of media and 50 μL/well TA/Fab-ZAP mix. Cells were then incubated for 72 h at 37° C. with 5% CO2 and viability was determined after 72 h via the CellTiter-Glo assay (Promega cat no. G7570) following the manufacturer's instructions. Cell viability RLU versus log10 nM drug concentration was plotted using GraphPad Prism. The % CD73 internalization was calculated using the following formula: % CD73 internalization=[1−RLU (sample)/RLU (untreated cells)]×100%. The EC50's for each TA was calculated using the 4 PL non-linear regression analysis in GraphPad Prism software.
Cells were plated into white tissue culture-treated 96 well plates (Corning cat no. 3917) at 2×10^3 cells/well in 100 μL in RPMI (Gibco cat no. 11875093)+10% FBS (Gibco cat no. 16140071) and incubated overnight at 37° C. with 5% CO2. Serial dilutions of test article (TA) from 0.06 nM-20 nM (2× final concentration) were pre-incubated with 100 nM Fab-ZAP reagent (2× final concentration) for 30 min at room temperature. […] Cells were then incubated for 96 h at 37° C. with 5% CO2 and viability was determined after 96 h via the CellTiter-Glo assay (Promega cat no. G7570) following the manufacturer's instructions. […] The % CD73 internalization was calculated using the following formula: % CD73 internalization=[1−RLU (sample)/RLU (untreated cells)]×100%. The EC50's for each TA was calculated using the 4 PL non-linear regression analysis in GraphPad Prism software.

CD73 [1] = biological target: T3, CD73 (Homo sapiens, UniProt P21589); assay: Cell-free CD73 enzyme inhibition assay (BPS Bioscience kit, colorimetric free phosphate); type: biochemical; settings: AMP 100 μM, 25 min at 37° C.
T3 sequence (P21589 27-549): T1 sequence (P21589 27-549)
Experimental: The cell-free CD73 enzyme inhibition assay was performed in a 96-well plate format using the CD73 Inhibitor Screening Assay Kit in accordance with the manufacturer's instructions (BPS Bioscience cat no. 72055). […] Colorimetric detection reagent was then added (100 μL/well) and the free phosphate from the CD73 reaction was measured by reading the absorbance at 630 nm using the EnSpire multimode plate reader (PerkinElmer). Wells without test inhibitor (CD73 positive control) were included on each plate. Blank wells without test inhibitor and CD73 were subtracted from all wells. Percent CD73 inhibition (y-axis) versus log10 inhibitor concentration (x-axis) was plotted using GraphPad Prism Version 8 and IC50's calculated using nonlinear regression analysis (Sigmoidal, 4 PL).

CD73 [2] = biological target: T3, CD73; assay: Cell-free CD73 inhibition IC50 (nM)
Description: Table printed on a drawing sheet, FIG. 24
Head of the field: Cell-free CD73 inhibition IC50 (nM)
Where the first naming reader finds the target: head: Cell-free CD73 inhibition IC50 (nM)

[3] = read-out: 3 h median IC50 [nM] (range), three unique PBMC donors, 3 h
[4] = three unique PBMC donors, 24 h, read-out: 24 h median IC50 [nM] (range)

Structure (SMILES)	IC50 (CD73 on human PBMCs; human PBMCs, 24 h (Table 18), read-out: 24 h IC50)	IC50 (CD73 on human PBMCs; read-out: 3 h IC50, human PBMCs, 3 h (Table 18))	IC50 (CD73 on human PBMCs; [3])	IC50 (CD73 on human PBMCs; [4])	Cell internalization EC50 (nM) (CD73 on MDA-MB-231 cells; 72 h (Table 11))	Cell internalization EC50 (nM) (CD73 on MDA-MB-231 cells; 96 h (Table 23))	IC50 (CD73 [1])	IC50 (CD73 [2])
COC[C@](CO)(OC[C@H]1O[C@@H](n2ncc3c(NC4CCCC4)nc(Cl)nc32)[C@H](O)[C@@H]1O)P(=O)(O)O [OP-5244]	0.28 nM	0.011 nM	0.07 nM	0.15 nM	did not induce receptor internalization	No activity	3.8 nM and 3.79 nM	2.25 nM
O=P(O)(O)COC[C@H]1O[C@@H](n2ncc3c(N4CC5(CCc6ccccc65)C4)nc(Cl)nc32)[C@H](O)[C@@H]1O [SHR170008]	–	–	1.45 nM	2.36 nM	did not induce receptor internalization	–	12.9 nM	16.1 nM
